One experiment addresses T1, human TRPM8 receptor (Homo sapiens, UniProt Q7Z2W7).
T1 construct: expressed in transfected cells
Kind of experiment: Assay for TRPM8 modulators: Ca2+ fluorescence (Fluo-4) in HEK293-TRPM8 test cells. Particulars: HEK293 cells stably transfected with human TRPM8, agonism, triplicates, 0.1-200 μM; read-out: Activity In vitro assay (EC50). The class given is cell-based. An excerpt:
The test cell system produced, with human TRPM8 DNA, was a stably transfected HEK293 cell line. Preference is given here to HEK293 which, via the plasmid introduced, offers the option of induction of TRPM8 expression by means of tetracycline.
The agonism or antagonism of the receptor can be quantified by means of a Ca^2+-sensitive dye (e.g. FURA, Fluo-4 etc.). Agonists on their own result in an increase in the Ca^2+ signal; antagonists in the presence of menthol, for example, result in a reduction in the Ca^2+ signal (in each case detected by means of the Fluo-4 dye which is caused to have different fluorescence properties by Ca^2+).
First of all, in a manner known per se, a fresh culture of transformed HEK cells is produced in cell culture bottles. The HEK293-TRPM8 test cells are detached from the cell culture bottles by means of trypsin and 40 000 cells/well are sown with 100 μl of medium in 96-hole plates (Greiner #655948 poly-D-lysine-coated). For induction of the TRPM8 receptor, tetracycline is added to the growth medium (DMEM/HG, 10% FCS tetracycline-free, 4 mM L-glutamine, 15 μg/mL blasticidin, 100 μg/mL hygromycin B, 1 μg/mL tetracycline). The next day, the cells are laden with Fluo-4AM dye and the test is conducted.
The test substances are used in the assay in triplicates in concentrations of 0.1-200 μM. Normally, the compounds are kept in DMSO solutions and diluted down for the assay to a maximum DMSO concentration of 2%.

The test system of a further experiment is trained panelists. The experiment in a line: Sensory assessment: cooling intensity of inventive amides in 5% sugar solution compared to FEMA 4809. Particulars: scale 1 (very weak) to 9 (very strong), n=10 to 11. The class given is in vivo, human. The method, then:
[…] What were assessed here were initial cooling intensity, overall cooling intensity and long-lasting action on a scale from 1 (very weak) to 9 (very strong).

T1 sequence (Q7Z2W7 whole entry): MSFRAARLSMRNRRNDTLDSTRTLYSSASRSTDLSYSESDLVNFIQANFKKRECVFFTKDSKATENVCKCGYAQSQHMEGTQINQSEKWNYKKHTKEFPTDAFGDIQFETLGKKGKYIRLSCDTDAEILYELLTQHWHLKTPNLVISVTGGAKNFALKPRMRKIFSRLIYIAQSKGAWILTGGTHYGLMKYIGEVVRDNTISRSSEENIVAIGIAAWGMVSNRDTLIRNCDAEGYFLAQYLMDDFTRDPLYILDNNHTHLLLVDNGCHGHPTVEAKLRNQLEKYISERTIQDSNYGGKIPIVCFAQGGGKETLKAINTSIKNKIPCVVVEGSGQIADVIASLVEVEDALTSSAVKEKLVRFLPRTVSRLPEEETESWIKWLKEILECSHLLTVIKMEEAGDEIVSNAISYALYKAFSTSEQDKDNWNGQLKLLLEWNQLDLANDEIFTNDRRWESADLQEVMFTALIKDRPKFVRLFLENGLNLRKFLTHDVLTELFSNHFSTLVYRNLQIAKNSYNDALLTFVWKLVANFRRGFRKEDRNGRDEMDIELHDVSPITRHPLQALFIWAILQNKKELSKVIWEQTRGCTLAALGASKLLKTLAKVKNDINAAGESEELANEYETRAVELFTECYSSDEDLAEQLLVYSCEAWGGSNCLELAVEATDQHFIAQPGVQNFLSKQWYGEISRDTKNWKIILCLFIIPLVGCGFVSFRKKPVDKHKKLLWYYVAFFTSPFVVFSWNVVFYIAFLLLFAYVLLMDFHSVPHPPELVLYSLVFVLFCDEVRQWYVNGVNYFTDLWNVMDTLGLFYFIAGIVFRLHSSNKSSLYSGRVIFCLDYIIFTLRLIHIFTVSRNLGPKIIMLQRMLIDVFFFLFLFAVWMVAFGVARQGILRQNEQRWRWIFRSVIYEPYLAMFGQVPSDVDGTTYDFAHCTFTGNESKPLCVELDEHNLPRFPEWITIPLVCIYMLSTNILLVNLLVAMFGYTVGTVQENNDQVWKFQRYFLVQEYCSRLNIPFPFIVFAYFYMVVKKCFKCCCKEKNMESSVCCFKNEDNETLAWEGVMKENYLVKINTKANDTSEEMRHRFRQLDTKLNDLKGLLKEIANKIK

What is called EC50 is the concentration giving half of the maximal effect. Take `O=C(/C=C/c1ccc2c(c1)OCO2)N(c1ccccn1)C1CCSC1` (centres unmarked) [(E)-3-(1,3-benzodioxol-5-yl)-N-(2-pyridyl)-N-tetrahydrothiophen-3-yl-prop-2-enamide]: the EC50 on human TRPM8 receptor was 6 µM. In the experiment with trained panelists (20 ppm in 5% sugar solution), this compound displayed an Initial cooling effect of 6.6, a Long-lasting action of 7.9 and an Overall cooling intensity of 8.3.

`O=C(/C=C/c1ccc2c(c1)OCO2)N(c1ccccc1)C1CCOC1` (centres unmarked) [(E)-3-(1,3-benzodioxol-5-yl)-N-phenyl-N-tetrahydrofuran-3-yl-prop-2-enamide]: at human TRPM8 receptor, the EC50 was found to be 25 µM. In the experiment with trained panelists (2 ppm in 5% sugar solution), the Initial cooling effect amounted to 4.1, the Long-lasting action amounted to 6.9 and the Overall cooling intensity is given as 6.1. Also, in the experiment with trained panelists (20 ppm in 5% sugar solution), the Initial cooling effect is 5.8, the Long-lasting action is 7.9 and the Overall cooling intensity was 7.8.

On to `COc1ccc(/C=C/C(=O)N(c2ccccn2)C2CCSC2)cc1` (centres unmarked) [(E)-3-(4-methoxyphenyl)-N-(2-pyridyl)-N-tetrahydrothiophen-3-yl-prop-2-enamide], for which, on human TRPM8 receptor, the EC50 worked out at 25 µM. In the experiment on trained panelists (20 ppm in 5% sugar solution), this compound showed an Initial cooling effect of 4.1, a Long-lasting action of 5.9 and an Overall cooling intensity of 5.6.

Turning to `Cc1ccc(/C=C/C(=O)N(c2ccccn2)C2CCSC2)cc1` (centres unmarked) [(E)-3-(p-tolyl)-N-(2-pyridyl)-N-tetrahydrothiophen-3-yl-prop-2-enamide], on human TRPM8 receptor, the EC50 is 25 µM. Also, in the experiment with trained panelists (20 ppm in 5% sugar solution), the Initial cooling effect is reported as 5.3, the Long-lasting action was found to be 7.4 and the Overall cooling intensity is on record as 7.0.

As for `CCN(CCSC)C(=O)/C=C/c1ccc2c(c1)OCO2` [(E)-3-(1,3-benzodioxol-5-yl)-N-ethyl-N-(2-methylsulfanylethyl)prop-2-enamide], on human TRPM8 receptor, the EC50 was determined as 15 µM. Further, in the experiment on trained panelists (20 ppm in 5% sugar solution), the Initial cooling effect was determined as 3.8, the Long-lasting action was 4.7 and the Overall cooling intensity was determined as 5.
